For 24 molecules, IC50 results are on record in patent US10647694B2, “Diphenylaminopyrimidine and triazine compound, and pharmaceutical composition and use thereof” (ARROMAX PHARMATECH CO., LTD., priority 2016, dated 2020).

The target in this assay is ALK enzyme (Homo sapiens, UniProt Q9UM73). Kind of assay: In-vitro ALK kinase inhibitory activity (HTRF kinEASE TK kit). The following applies: inhibitory activity for ALK enzyme, read-out: IC50 range. Format: biochemical. As for the experimental part:
Anaplastic Lymphoma Kinase (ALK) Inhibitory Activity The in-vitro kinase assay was performed using the HTRF kinEASE TK kit available from Cisbio. The operation steps are indicated in the instructions of the kit. This method was used to detect the inhibitory effect of the compound to be tested on the activity of ALK enzymes in vitro, including wild-type ALK (Cat.PV3867, Invitrogen), ALK L1196M (Cat. PV6168, Life technologies), and ALK F1174L (Cat. PV6160, Life technologies). The specific operation steps were as follows. […] In addition to the control wells, 4 μL of the diluted compound solution to be tested was added to the reaction wells, and 4 μL of the 2.5% DMSO solution corresponding to the ALK enzyme previously formulated was added to the control wells. (2) 2 μL of a TK-biotin substrate solution previously formulated in a substrate concentration corresponding to the ALK enzyme was added to all reaction wells. (3) 2 μL of a previously prepared enzyme solution of corresponding concentration was added to all the reaction wells except the negative wells, and 2 μL of the 1× kinase buffer corresponding to the enzyme was added to the negative wells to make up the volume. The plate was sealed with a membrane, and incubated for 10 min at room temperature after mixing uniformly, such that the compounds were bond to the enzyme fully. (4) 2 μL of an ATP solution in a concentration corresponding to the ALK enzyme was added to all the reaction wells to initiate the kinase reaction, where the enzyme reaction time by ALK was 60 minutes. (5) An ALK test solution was prepared 5 minutes before the end of the kinase reaction. Streptavidin-XL665 and TK antibody europium cryptate (1:100) solutions for assay having a concentration corresponding to the enzyme were prepared using the detection buffer in the kit. (6) After the completion of the kinase reaction, 5 μl of diluted Streptavidin-XL665 was added to all the reaction wells respectively, and mixed uniformly, and then the diluted TK antibody europium cryptate solution for assay was added immediately. (7) The plate was sealed, mixed uniformly and allowed to react at room temperature for 1 h. The fluorescence signal (excitation at 320 nm, and emission at 665 nm and 615 nm) was detected using the ENVISION instrument (Perkinelmer). The inhibition rate for each well was calculated from the values of the fully active wells and the background signal wells. The values of replicated wells were averaged, and the half-maximal inhibitory activity (IC50) of each compound to be tested was fitted with a professional drawing analysis software PRISM 5.0.
Background: In TR-FRET formats the signal depends on donor and acceptor labels being close together.

Chain of ALK enzyme (Q9UM73 19-1620 limits assumed): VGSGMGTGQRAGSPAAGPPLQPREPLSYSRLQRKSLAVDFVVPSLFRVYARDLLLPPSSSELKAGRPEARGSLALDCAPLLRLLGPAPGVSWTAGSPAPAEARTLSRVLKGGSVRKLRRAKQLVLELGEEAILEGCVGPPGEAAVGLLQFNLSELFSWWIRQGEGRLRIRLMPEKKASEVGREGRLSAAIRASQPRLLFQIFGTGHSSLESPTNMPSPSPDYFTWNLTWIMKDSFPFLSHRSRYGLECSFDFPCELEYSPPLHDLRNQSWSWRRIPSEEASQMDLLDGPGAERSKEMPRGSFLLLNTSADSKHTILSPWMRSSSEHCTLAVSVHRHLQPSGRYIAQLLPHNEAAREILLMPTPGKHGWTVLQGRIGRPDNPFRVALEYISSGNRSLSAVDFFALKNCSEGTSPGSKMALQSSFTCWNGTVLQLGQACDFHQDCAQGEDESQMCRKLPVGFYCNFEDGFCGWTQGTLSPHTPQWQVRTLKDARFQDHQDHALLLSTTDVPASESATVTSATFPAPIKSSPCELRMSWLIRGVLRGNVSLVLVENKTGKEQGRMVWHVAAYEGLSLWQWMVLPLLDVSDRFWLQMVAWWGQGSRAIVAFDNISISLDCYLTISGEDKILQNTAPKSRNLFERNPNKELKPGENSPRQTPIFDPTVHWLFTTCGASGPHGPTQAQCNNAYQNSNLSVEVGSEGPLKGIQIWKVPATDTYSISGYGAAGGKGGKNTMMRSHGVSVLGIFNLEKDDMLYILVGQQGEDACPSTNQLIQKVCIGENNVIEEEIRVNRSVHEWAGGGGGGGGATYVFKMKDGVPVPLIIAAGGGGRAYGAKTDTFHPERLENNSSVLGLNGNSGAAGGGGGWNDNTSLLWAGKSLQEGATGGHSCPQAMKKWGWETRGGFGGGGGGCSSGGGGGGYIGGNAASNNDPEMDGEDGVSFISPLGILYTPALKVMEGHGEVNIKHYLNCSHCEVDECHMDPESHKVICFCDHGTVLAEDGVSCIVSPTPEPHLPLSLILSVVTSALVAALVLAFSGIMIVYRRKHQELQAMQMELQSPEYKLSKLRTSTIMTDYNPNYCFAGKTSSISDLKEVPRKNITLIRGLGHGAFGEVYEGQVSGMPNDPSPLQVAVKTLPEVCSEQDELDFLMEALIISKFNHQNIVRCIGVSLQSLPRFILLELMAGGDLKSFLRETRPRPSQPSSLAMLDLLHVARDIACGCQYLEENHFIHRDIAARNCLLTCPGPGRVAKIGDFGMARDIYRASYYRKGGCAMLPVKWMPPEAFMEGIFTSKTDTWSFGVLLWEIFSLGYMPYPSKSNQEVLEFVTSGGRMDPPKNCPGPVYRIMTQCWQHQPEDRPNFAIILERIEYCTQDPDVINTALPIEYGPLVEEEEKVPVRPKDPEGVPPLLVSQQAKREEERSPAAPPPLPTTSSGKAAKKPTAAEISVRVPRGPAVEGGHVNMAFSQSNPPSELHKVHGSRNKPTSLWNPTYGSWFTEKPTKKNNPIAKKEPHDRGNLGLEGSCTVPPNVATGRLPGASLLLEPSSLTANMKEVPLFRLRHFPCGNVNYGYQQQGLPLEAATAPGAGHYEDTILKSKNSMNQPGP

One may read the IC50 as the concentration that inhibits the measured activity by half. Take `CCc1cc(Nc2ncc(Cl)c(Nc3ccccc3S(=O)(=O)C(C)C)n2)c(OC)cc1C1CCNCC1` [Compound 44, reference compound]: the IC50 is 10 to 100 nM.

Consider `COc1cc(C2CCNCC2)c(C)cc1Nc1ncc(Cl)c(Nc2ccccc2S(=O)(=O)C(C)C)n1` [Compound 45, reference compound], for which the IC50 was in the range of 10 to 100 nM.

Consider `COc1cc(C2CCNCC2)c(C)cc1Nc1nccc(Nc2ccccc2S(=O)(=O)C(C)C)n1` [Compound I-1, N4-(2-(isopropylsulfonyl)phenyl)-N2-(2-D3-methoxy-5-methyl-4-(piperidin-4-yl)phenyl)pyrimidin-2,4-diamine], for which the IC50 fell in the range of 1 to 10 nM.

With `COc1cc(C2CCNCC2)c(C)cc1Nc1ncc(F)c(Nc2ccccc2S(=O)(=O)C(C)C)n1` [Compound I-2, 5-fluoro-N4-(2-(isopropylsulfonyl)phenyl)-N2-(2-D3-methoxy-5-methyl-4-(piperidin-4-yl)phenyl)pyrimidin-2,4-diamine], the concentration for half-maximal inhibition (IC50) is 1 to 10 nM.

As to `COc1cc(C2CCNCC2)c(C)cc1Nc1ncc(Br)c(Nc2ccccc2S(=O)(=O)C(C)C)n1` [Compound I-4, 5-bromo-N4-(2-(isopropylsulfonyl)phenyl)-N2-(2-D3-methoxy-5-methyl-4-(piperidin-4-yl)phenyl)pyrimidin-2,4-diamine], the IC50 is 1 to 10 nM.

On to `[2H]C([2H])([2H])Oc1cc(C2CCNCC2)c(C)cc1Nc1ncc(C(F)(F)F)c(Nc2ccccc2S(=O)(=O)C(C)C)n1` [Compound I-5, N4-(2-(isopropylsulfonyl)phenyl)-N2-(2-methoxy-5-methyl-4-(piperidin-4-yl)phenyl)-5-(trifluoromethyl)pyrimidin-2,4-diamine], for which the IC50 is 1 to 10 nM.

For the molecule `COc1cc(C2CCNCC2)c(C)cc1Nc1ncc(C#N)c(Nc2ccccc2S(=O)(=O)C(C)C)n1` [Compound I-6], the 50% inhibitory concentration (IC50) lay within 1 to 10 nM.

As for `COc1cc(C2CCNCC2)c(C)cc1Nc1ncc(OC)c(Nc2ccccc2S(=O)(=O)C(C)C)n1` [Compound I-7, N4-(2-(isopropylsulfonyl)phenyl)-5-methoxy-N2-(2-D3-methoxy-5-methyl-4-(piperidin-4-yl)phenyl)pyrimidin-2,4-diamine], the IC50 is 1 to 10 nM.

As for `COc1cc(C2CCNCC2)c(C)cc1Nc1ncc(C)c(Nc2ccccc2S(=O)(=O)C(C)C)n1` [Compound I-8, N4-(2-(isopropylsulfonyl)phenyl)-N2-(2-D3-methoxy-5-methyl-4-(piperidin-4-yl)phenyl)-5-methylpyrimidin-2,4-diamine], the IC50 is 1 to 10 nM.

As to `CCc1cnc(Nc2cc(C)c(C3CCNCC3)cc2OC)nc1Nc1ccccc1S(=O)(=O)C(C)C` [Compound I-9, 5-ethyl-N4-(2-(isopropylsulfonyl)phenyl)-N2-(2-D3-methoxy-5-methyl-4-(piperidin-4-yl)phenyl)pyrimidin-2,4-diamine], the IC50 is 1 to 10 nM.

Regarding `COc1cc(C2CCNCC2)c(C)cc1Nc1ncc([N+](=O)[O-])c(Nc2ccccc2S(=O)(=O)C(C)C)n1` [Compound I-10, N4-(2-(isopropylsulfonyl)phenyl)-N2-(2-D3-methoxy-5-methyl-4-(piperidin-4-yl)phenyl)-5-nitropyrimidin-2,4-diamine], the IC50 was 1 to 10 nM.

On to `COc1cc(C2CCNCC2)c(C)cc1Nc1ncc(-c2ccccc2)c(Nc2ccccc2S(=O)(=O)C(C)C)n1` [Compound I-11, N4-(2-(isopropylsulfonyl)phenyl)-N2-(2-D3-methoxy-5-methyl-4-(piperidin-4-yl)phenyl)-5-phenylpyrimidin-2,4-diamine], for which the IC50 fell in the range of 10 to 100 nM.

With `C=Cc1cnc(Nc2cc(C)c(C3CCNCC3)cc2OC)nc1Nc1ccccc1S(=O)(=O)C(C)C` [Compound I-12, N4-(2-(isopropylsulfonyl)phenyl)-N2-(2-D3-methoxy-5-methyl-4-(piperidin-4-yl)phenyl)-5-ethenylpyrimidin-2,4-diamine], the half-maximal inhibitory concentration (IC50) was in the range of 1 to 10 nM.

Consider `C#Cc1cnc(Nc2cc(C)c(C3CCNCC3)cc2OC)nc1Nc1ccccc1S(=O)(=O)C(C)C` [Compound I-13, 5-ethynyl-N4-(2-(isopropylsulfonyl)phenyl)-N2-(2-D3-methoxy-5-methyl-4-(piperidin-4-yl)phenyl)pyrimidin-2,4-diamine], for which the IC50 lay in the range of 1 to 10 nM.

Take `COc1cc(C2CCNCC2)ccc1Nc1ncc(Cl)c(Nc2ccccc2S(=O)(=O)C(C)C)n1` [Compound I-15, 5-chloro-N2-(2-D3-methoxy-4-(piperidin-4-yl)phenyl)-N4-(2-(isopropylsulfonyl)phenyl)pyrimidin-2,4-diamine]: the IC50 lay within 1 to 10 nM.

In the case of `COc1cc(N2CCNCC2)c(C)cc1Nc1ncc(Cl)c(Nc2ccccc2S(=O)(=O)C(C)C)n1` [Compound I-17, 5-chloro-N4-(2-(isopropylsulfonyl)phenyl)-N2-(2-D3-methoxy-4-(piperazin-1-yl)-5-methyl-phenyl)pyrimidin-2,4-diamine], the IC50 is 1 to 10 nM.

For the molecule `COc1cc(C2CCNCC2)c(Cl)cc1Nc1ncc(Cl)c(Nc2ccccc2S(=O)(=O)C(C)C)n1` [Compound I-18, 5-chloro-N2-(5-chloro-2-D3-methoxy-4-(piperidin-4-yl)phenyl)-N4-(2-(isopropylsulfonyl)phenyl)pyrimidin-2,4-diamine], the IC50 lay within 1 to 10 nM.

In the case of `CCOc1cc(C2CCNCC2)c(Cl)cc1Nc1ncc(Cl)c(Nc2ccccc2S(=O)(=O)C(C)C)n1` [Compound I-19, 5-chloro-N2-(5-chloro-2-D5-ethoxy-4-(piperidin-4-yl)phenyl)-N4-(2-(isopropylsulfonyl)phenyl)pyrimidin-2,4-diamine], the IC50 lay in the range of 1 to 10 nM.

For the molecule `CCOc1cc(C2CCNCC2)ccc1Nc1ncc(Cl)c(Nc2ccccc2S(=O)(=O)C(C)C)n1` [Compound I-20, 5-chloro-N2-(2-D5-ethoxy-4-(piperidin-4-yl)phenyl)-N4-(2-(isopropylsulfonyl)phenyl)pyrimidin-2,4-diamine], the IC50 lay within 1 to 10 nM.

For the molecule `COc1cc(C2CCNCC2)c(F)cc1Nc1ncc(Cl)c(Nc2ccccc2S(=O)(=O)C(C)C)n1` [Compound I-21, 5-chloro-N2-(5-fluoro-2-D3-methoxy-4-(piperidin-4-yl)phenyl)-N4-(2-(isopropylsulfonyl)phenyl)pyrimidin-2,4-diamine], the IC50 was in the range of 1 to 10 nM.

As for `COc1cc(C2CCNCC2)c(C(F)(F)F)cc1Nc1ncc(Cl)c(Nc2ccccc2S(=O)(=O)C(C)C)n1` [Compound I-22, 5-chloro-N4-(2-(isopropylsulfonyl)phenyl)-N2-(2-D3-methoxy-4-(piperidin-4-yl)-5-(trifluoromethyl)phenyl)pyrimidin-2,4-diamine], the IC50 is 1 to 10 nM.

Take `COc1cc(C2CCNCC2)c(C#N)cc1Nc1ncc(Cl)c(Nc2ccccc2S(=O)(=O)C(C)C)n1` [Compound I-23, 5-((5-chloro-4-((2-(isopropylsulfonyl)phenyl)amino)pyrimidin-2-yl)amino)-4-D3-methoxy-2-(piperidin-4-yl)benzonitrile]: the IC50 was in the range of 1 to 10 nM.

As for `COc1cc(N2CCC(N3CCN(C)CC3)CC2)ccc1Nc1nc(Nc2ccccc2S(=O)(=O)C(C)C)c2cc[nH]c2n1` [Compound I-24], the IC50 was in the range of 10 to 100 nM.

Take `COc1cc(N2CCC(N3CCN(C)CC3)CC2)ccc1Nc1nc(Nc2ccccc2S(=O)(=O)C(C)C)c2[nH]ccc2n1` [Compound I-25]: the half-maximal inhibitory concentration (IC50) lay in the range of 10 to 100 nM.
